# Measurements reported in US11896573B2, “Pharmaceutical compositions and pharmacokinetics of a gamma-hydroxybutyric acid derivative” (priority 2020, dated 2024).
# Where “and” joins values, the source holds several entries; their conditions need not be identical. Equal values may be shown once. Read-outs that look alike come from different tables or passages of the source.
# Assays:
# [1] = Multiple ascending dose study, plasma pharmacokinetics of Compound (1) and GHB; format: in vivo, human; settings: for AUC(0-inf) / AUC(0-t) / Cmax / half-life / Tmax: human, plasma, oral; for Tmax: read-out: Compound (1) plasma Tmax, Median
# Description: The plasma concentrations of Compound (1) and GHB in plasma in healthy human subjects were measured using liquid chromatography tandem mass-spectroscopy and evaluated using PHOENIX™ WINNONLIN® version 8.1 (Pharsight Corporation, USA) and MICROSOFT® EXCEL® (Microsoft Corporation, USA).
# All randomized subjects who received Compound (1), with available pharmacokinetic (PK) data and without relevant deviations interfering with the PK evaluations, were included. Subjects who received only placebo were excluded from the PK population. In addition, the PK population was used for the summaries and analyses of all PK data.
# A multiple ascending dose study was undertaken to evaluate the pharmacokinetics of multiple doses of Compound (1) in 3 cohorts of healthy subjects (with 8 subjects/cohort). Within each cohort, the subjects were randomized to receive Compound (1) or placebo at a ratio of 6:2 (active: placebo) for 7 days (or up to 9 days if the cohort included a titration period).
# After fasting for at least 3 hours following a standard meal, subjects were randomized on Day 1 and the first dose of study drug (either target dose or titration dose) was administered. The first cohort of subjects (Cohort 8) received the second dose administration at approximately four hours after receiving the first dose. The subsequent […] cohorts (Cohorts 9 and 10) received only one dose per day.
# For the first cohort (Cohort 8), the dose used was 6.0 g divided into two equal doses four hours apart for 7 days starting from Day 4 “Dose Day 1” to Day 10 “Dose Day 7”. Subsequent Cohorts 9, 10 received a single daily dose of 4.5 g and 6.0 g during the titration period (Day 1 for Cohort 9, Day 1 and Day 2 for Cohort 10, and after a titration period for 7 days starting from Day 4 “Dose Day 1” to Day 10 “Dose Day 7”. Cohort 11 was not conducted due to API availability.
# [2] = Cohort 10 (6.0 g/day in a single dose), Dosing Day 10
smiles,measurement,setting,value
"CC(C)[C@H](N)C(=O)OCCCC(=O)O [Compound (1), 4-((L-valyl)oxy)butanoic acid]","Compound (1) CL/F, Mean",[1]; [2],395 L/h
same,"Compound (1) CL/F, Median",[1]; [2],354 L/h
same,"Compound (1) CL/F, Min",[1]; [2],284 L/h
same,"Compound (1) plasma AUC0-inf, Max",[1]; [2],21100 ng·h/mL
same,"Compound (1) plasma AUC0-inf, Min",[1]; [2],10400 ng·h/mL
same,"Compound (1) plasma AUC0-tlast, Max",[1]; [2],21100 ng·h/mL
same,"Compound (1) plasma AUC0-tlast, Min",[1]; [2],10400 ng·h/mL
same,"Compound (1) plasma Cmax, Max",[1]; [2],24500 ng/mL
same,"Compound (1) plasma Cmax, Min",[1]; [2],11700 ng/mL
same,"Compound (1) plasma T1/2, Max",[1]; [2],31.2 min
same,"Compound (1) plasma T1/2, Min",[1]; [2],17.4 min
same,AUC(0-inf),"[1]; 4.5 g/day, Cohort 9 (4.5 g/day in a single dose), Dosing Day 4, read-out: Compound (1) plasma AUC0-inf, Mean",12000 ng·h/mL
same,AUC(0-inf),"[1]; 4.5 g/day, Cohort 9 (4.5 g/day in a single dose), Dosing Day 4, read-out: Compound (1) plasma AUC0-inf, Median",11800 ng·h/mL
same,AUC(0-t),"[1]; 4.5 g/day, Cohort 9 (4.5 g/day in a single dose), Dosing Day 4, read-out: Compound (1) plasma AUC0-tlast, Mean",11300 ng·h/mL
same,AUC(0-t),"[1]; 4.5 g/day, Cohort 9 (4.5 g/day in a single dose), Dosing Day 4, read-out: Compound (1) plasma AUC0-tlast, Median",11700 ng·h/mL
same,Cmax,"[1]; 4.5 g/day, Cohort 9 (4.5 g/day in a single dose), Dosing Day 4, read-out: Compound (1) plasma Cmax, Mean",15600 ng/mL
same,Cmax,"[1]; 4.5 g/day, Cohort 9 (4.5 g/day in a single dose), Dosing Day 4, read-out: Compound (1) plasma Cmax, Median",16800 ng/mL
same,half-life,"[1]; 4.5 g/day, Cohort 9 (4.5 g/day in a single dose), Dosing Day 4, read-out: Compound (1) plasma T1/2, Mean (converted)",29.4 min
same,half-life,"[1]; 4.5 g/day, Cohort 9 (4.5 g/day in a single dose), Dosing Day 4, read-out: Compound (1) plasma T1/2, Median (converted)",32.4 min
same,AUC(0-inf),"[1]; 4.5 g/day, Cohort 9 (4.5 g/day in a single dose), Dosing Day 10, read-out: Compound (1) plasma AUC0-inf, Mean",10800 ng·h/mL
same,AUC(0-inf),"[1]; 4.5 g/day, Cohort 9 (4.5 g/day in a single dose), Dosing Day 10, read-out: Compound (1) plasma AUC0-inf, Median",10200 ng·h/mL
same,AUC(0-t),"[1]; 4.5 g/day, Cohort 9 (4.5 g/day in a single dose), Dosing Day 10, read-out: Compound (1) plasma AUC0-tlast, Mean",10700 ng·h/mL
same,AUC(0-t),"[1]; 4.5 g/day, Cohort 9 (4.5 g/day in a single dose), Dosing Day 10, read-out: Compound (1) plasma AUC0-tlast, Median",10100 ng·h/mL
same,Cmax,"[1]; 4.5 g/day, Cohort 9 (4.5 g/day in a single dose), Dosing Day 10, read-out: Compound (1) plasma Cmax, Mean",14800 ng/mL
same,Cmax,"[1]; 4.5 g/day, Cohort 9 (4.5 g/day in a single dose), Dosing Day 10, read-out: Compound (1) plasma Cmax, Median",15900 ng/mL
same,half-life,"[1]; 4.5 g/day, Cohort 9 (4.5 g/day in a single dose), Dosing Day 10, read-out: Compound (1) plasma T1/2, Mean (converted)",33.6 min
same,half-life,"[1]; 4.5 g/day, Cohort 9 (4.5 g/day in a single dose), Dosing Day 10, read-out: Compound (1) plasma T1/2, Median (converted)",33.6 min
same,AUC(0-inf),"[1]; 6 g/day, Cohort 8 (6.0 g/day divided into equal 2 doses), Dosing Day 4, read-out: Compound (1) plasma AUC0-inf, Mean",14500 ng·h/mL
same,AUC(0-inf),"[1]; 6 g/day, Cohort 8 (6.0 g/day divided into equal 2 doses), Dosing Day 4, read-out: Compound (1) plasma AUC0-inf, Median",14800 ng·h/mL
same,AUC(0-t),"[1]; 6 g/day, Cohort 8 (6.0 g/day divided into equal 2 doses), Dosing Day 4, read-out: Compound (1) plasma AUC0-tlast, Mean",14400 ng·h/mL
same,AUC(0-t),"[1]; 6 g/day, Cohort 8 (6.0 g/day divided into equal 2 doses), Dosing Day 4, read-out: Compound (1) plasma AUC0-tlast, Median",14800 ng·h/mL
same,Cmax,"[1]; 6 g/day, Cohort 8 (6.0 g/day divided into equal 2 doses), Dosing Day 4, read-out: Compound (1) plasma Cmax, Mean",12100 ng/mL
same,Cmax,"[1]; 6 g/day, Cohort 8 (6.0 g/day divided into equal 2 doses), Dosing Day 4, read-out: Compound (1) plasma Cmax, Median",11500 ng/mL
same,half-life,"[1]; 6 g/day, Cohort 8 (6.0 g/day divided into equal 2 doses), Dosing Day 4, read-out: Compound (1) plasma T1/2, Mean (converted)",31.8 min
same,half-life,"[1]; 6 g/day, Cohort 8 (6.0 g/day divided into equal 2 doses), Dosing Day 4, read-out: Compound (1) plasma T1/2, Median (converted)",16.2 min
same,AUC(0-inf),"[1]; 6 g/day, Cohort 8 (6.0 g/day divided into equal 2 doses), Dosing Day 10, read-out: Compound (1) plasma AUC0-inf, Mean",14900 ng·h/mL
same,AUC(0-inf),"[1]; 6 g/day, Cohort 8 (6.0 g/day divided into equal 2 doses), Dosing Day 10, read-out: Compound (1) plasma AUC0-inf, Median",14100 ng·h/mL
same,AUC(0-t),"[1]; 6 g/day, Cohort 8 (6.0 g/day divided into equal 2 doses), Dosing Day 10, read-out: Compound (1) plasma AUC0-tlast, Mean",14800 ng·h/mL
same,AUC(0-t),"[1]; 6 g/day, Cohort 8 (6.0 g/day divided into equal 2 doses), Dosing Day 10, read-out: Compound (1) plasma AUC0-tlast, Median",14100 ng·h/mL
same,Cmax,"[1]; 6 g/day, Cohort 8 (6.0 g/day divided into equal 2 doses), Dosing Day 10, read-out: Compound (1) plasma Cmax, Mean",11500 ng/mL
same,Cmax,"[1]; 6 g/day, Cohort 8 (6.0 g/day divided into equal 2 doses), Dosing Day 10, read-out: Compound (1) plasma Cmax, Median",11300 ng/mL
same,half-life,"[1]; 6 g/day, Cohort 8 (6.0 g/day divided into equal 2 doses), Dosing Day 10, read-out: Compound (1) plasma T1/2, Mean (converted)",20.4 min
same,half-life,"[1]; 6 g/day, Cohort 8 (6.0 g/day divided into equal 2 doses), Dosing Day 10, read-out: Compound (1) plasma T1/2, Median (converted)",16.8 min
same,AUC(0-inf),"[1]; 6 g/day, Cohort 10 (6.0 g/day in a single dose), Dosing Day 4, read-out: Compound (1) plasma AUC0-inf, Mean",17200 ng·h/mL
same,AUC(0-inf),"[1]; 6 g/day, Cohort 10 (6.0 g/day in a single dose), Dosing Day 4, read-out: Compound (1) plasma AUC0-inf, Median",19000 ng·h/mL
same,AUC(0-t),"[1]; 6 g/day, Cohort 10 (6.0 g/day in a single dose), Dosing Day 4, read-out: Compound (1) plasma AUC0-tlast, Mean",17100 ng·h/mL
same,AUC(0-t),"[1]; 6 g/day, Cohort 10 (6.0 g/day in a single dose), Dosing Day 4, read-out: Compound (1) plasma AUC0-tlast, Median",18900 ng·h/mL
same,Cmax,"[1]; 6 g/day, Cohort 10 (6.0 g/day in a single dose), Dosing Day 4, read-out: Compound (1) plasma Cmax, Mean",21300 ng/mL
same,Cmax,"[1]; 6 g/day, Cohort 10 (6.0 g/day in a single dose), Dosing Day 4, read-out: Compound (1) plasma Cmax, Median",23500 ng/mL
same,half-life,"[1]; 6 g/day, Cohort 10 (6.0 g/day in a single dose), Dosing Day 4, read-out: Compound (1) plasma T1/2, Mean (converted)",24.6 min
same,half-life,"[1]; 6 g/day, Cohort 10 (6.0 g/day in a single dose), Dosing Day 4, read-out: Compound (1) plasma T1/2, Median (converted)",24 min
same,AUC(0-inf),"[1]; 6 g/day, Cohort 10 (6.0 g/day in a single dose), Dosing Day 10, read-out: Compound (1) plasma AUC0-inf, Mean",16400 ng·h/mL
same,AUC(0-inf),"[1]; 6 g/day, Cohort 10 (6.0 g/day in a single dose), Dosing Day 10, read-out: Compound (1) plasma AUC0-inf, Median",16900 ng·h/mL
same,AUC(0-t),"[1]; 6 g/day, Cohort 10 (6.0 g/day in a single dose), Dosing Day 10, read-out: Compound (1) plasma AUC0-tlast, Mean",16300 ng·h/mL
same,AUC(0-t),"[1]; 6 g/day, Cohort 10 (6.0 g/day in a single dose), Dosing Day 10, read-out: Compound (1) plasma AUC0-tlast, Median",16800 ng·h/mL
same,Cmax,"[1]; 6 g/day, Cohort 10 (6.0 g/day in a single dose), Dosing Day 10, read-out: Compound (1) plasma Cmax, Mean",18900 ng/mL
same,Cmax,"[1]; 6 g/day, Cohort 10 (6.0 g/day in a single dose), Dosing Day 10, read-out: Compound (1) plasma Cmax, Median",20000 ng/mL
same,half-life,"[1]; 6 g/day, Cohort 10 (6.0 g/day in a single dose), Dosing Day 10, read-out: Compound (1) plasma T1/2, Mean (converted)",21.6 min
same,half-life,"[1]; 6 g/day, Cohort 10 (6.0 g/day in a single dose), Dosing Day 10, read-out: Compound (1) plasma T1/2, Median (converted)",21 min
same,Tmax,"[1]; Cohort 8 (6.0 g/day divided into equal 2 doses), Dosing Day 4",30 min
same,Tmax,"[1]; Cohort 9 (4.5 g/day in a single dose), Dosing Day 4",30 min
same,Purity (Area %),pH 1.2,99.25 Area % and 99.22 Area % and 98.95 Area %
same,Purity (Area %),pH 4.5,99.25 Area % and 99.05 Area % and 98.35 Area %
same,Purity (Area %),pH 6.8,99.08 Area % and 97.58 Area % and 93.14 Area %
same,Purity (Area %),pH 7.4,98.84 Area % and 95.74 Area % and 87.89 Area %
